Data set [1] concerns C57BL/6 mice. Description: Acute nociception hot plate latency assay. The class given is in vivo, mouse. Particulars: for Duration of significant antinociception after administration / Onset of significant antinociceptive effect / Time of peak antinociceptive effect: i.t. 56 and 100 μg, hot plate, n = 8; for ED50 Hot Plate Latency: i.t. injection, 1 hour following treatment, 52 °C hot plate, % MPE, male and female mice, n = 8, 95% confidence intervals in parentheses. Here is the method: (§1) NPB-23 ([…]NH2) and RTIBW-16 ([desaminoTrp^1]-Tyr-Lys-Ava-Ava-Ava-Gly-Arg-Ala-Ala-Gly-Leu-Leu-NH2, compound 30 in Ref. [27]) were synthesized as previously reported. RTIBW-16 and NPB-23 were administered via i.t. injections between L4 and L5 vertebrae with an injection volume of 5 μL. The dosing of these compounds was based on previous literature.
(§2) Intrathecal injections were conducted as previously described; injections occurred between the L4 and L5 vertebrae. Briefly, an ‘injection catheter’ made from a 27-gauge needle and polyethylene (PE) 20 tubing was connected to a 10 μl Hamilton syringe. Injections occurred over 5 sec and were generally accompanied by a hind paw twitch response. A 100% motor recovery rate was observed.
Acute nociception measurements were collected via the hot plate latency assay as previously described. Mice were placed on a heated (52 °C) enclosed Hot Plate Analgesia Meter (Columbus Instruments, Columbus, OH). The latency to jump/lick/shake/flick a hind paw was recorded. A 30 second cut-off was used to prevent tissue damage. Latencies were recorded prior to administration of compounds and at each time point over the 24-hour study (0.5, 1, 1.5, 2, 3, 4, 6, 24 hr time points). Latency measurements were taken by observers blinded to treatment conditions. Mice were given a 1-week washout period between test days.
(§3) Hot plate data were converted to percent maximum possible effect (% MPE) with the following equation: ([experimental test value – baseline value) / (30 sec – baseline value)] * 100). Behavioral data were analyzed using a repeated measures two-way analysis of variance (ANOVA) for RTIBW-16 and NPB-23 treatment time course analysis with time as one factor and compound dosing as a second factor [35]. Individual treatment effects were analyzed using repeated measures one-way ANOVA. Dunnett’s test was used for post hoc analysis following a significant ANOVA result. Two tailed, paired t-tests were conducted to compare the magnitude of baseline von Frey measurements to their respective pre-paclitaxel and pre-carrageenan measurements. A p value of < 0.05 was considered statistically significant. As no significant sex effect was observed, male and female data were collapsed. […] When the mean effect of a drug in an experiment was greater than 50%, the ED50 values and corresponding 95% confidence limits were calculated using linear regression, where slopes were allowed to vary. The computer program GraphPad Prism version 10.3 (GraphPad Software Inc.; San Diego, CA) was used in the statistical analyses. Data are plotted as mean ± the standard error of the mean.

Data set [2] deals with C57BL/6 mice. The data set is described as follows: Paclitaxel CIPN model, von Frey mechanical allodynia. To be noted: for Duration of reversal of mechanical allodynia following treatment: i.t. 100 and 56 μg, paclitaxel CIPN, n = 8. It counts as in vivo, mouse. The procedure: as §1
(§4) Paclitaxel was purchased from Bio-Techne (Minneapolis, MN) and was administered in a vehicle solution containing a 1:1:18 ratio of ethanol (100%), polyethylene glycol monooleyl ether (Tokyo Chemical Industry America; Portland, OR), and saline (0.9% w/v NaCl) as previously described. A dosing cycle of paclitaxel consisted of a total of four intraperitoneal (i.p.) paclitaxel injections (8 mg/kg per injection, given every other day. Carrageenan was purchased from Sigma-Aldrich (St. Louis, MO) and made into a 0.3% w/v solution in saline for injections.
as §2
To assess mechanical allodynia within CIPN, mice were habituated to the von Frey testing environment for four consecutive days in 30-minute sessions prior to the first testing session. Baselines were measured as previously described using von Frey monofilaments (North Coast Medical; Morgan Hills, CA) to establish responses to light mechanical touch before paclitaxel or vehicle administration. During testing mice were placed atop a wire mesh screen with spaces 0.5 mm apart. Mice were singly placed beneath an inverted wire mesh basket (8 cm diameter, 15 cm height) and allowed to habituate to the apparatus for 30 minutes before testing. The von Frey assay utilizes a series of calibrated monofilaments (0.4–4.0 g stimulus intensity), applied to the left and right plantar surface of the hind paws utilizing the “up-down” method. […] Responses from the von Frey assay were measured over a 24-hour time course (1, 2, 3, 4, 6, 24 hr timepoints). […]
Hot plate data were converted to percent maximum possible effect (% MPE) with the following equation: ([experimental test value – baseline value) / (30 sec – baseline value)] * 100). Behavioral data were analyzed using a repeated measures two-way analysis of variance (ANOVA) for RTIBW-16 and NPB-23 treatment time course analysis with time as one factor and compound dosing as a second factor [35]. Individual treatment effects were analyzed using repeated measures one-way ANOVA. […]

Data set [3] relates to C57BL/6 mice. The data set is described as follows: Carrageenan inflammatory pain model, von Frey mechanical allodynia. It counts as in vivo, mouse. To be noted: for Attenuation of carrageenan-induced mechanical allodynia: i.t. 100 μg and 56 μg; for Attenuation of carrageenan-induced mechanical allodynia / Time of delayed-onset partial mechanical allodynia attenuation after administration: von Frey, n = 8; for ED50 Carrageenan von Frey: i.t. injection, 1 hour following treatment, carrageenan-induced mechanical allodynia, n = 8, 95% confidence intervals in parentheses; for Time of delayed-onset partial mechanical allodynia attenuation after administration: i.t. lower doses of 10 μg and 5.6 μg. Here is the method: as §1, §4, §2
After use in the hot plate latency assay, the same cohort was then used for the carrageen model of inflammatory pain. Mice were given at least a one-week washout period between experimental use. Mice were habituated to the von Frey apparatus and were assessed using the same “up-down” method as described earlier. The carrageenan inflammatory pain model was induced as previously described. Briefly, an intraplantar injection of 0.3% w/v carrageenan in a 20 μL volume using a 27-gauge needle was administered into the right hind paw. […]. The left paw served as an internal control for each subject. The change in paw thickness from baseline was assessed with digital caliper measurements. Paw thickness and von Frey responses were measured over a 24-hour time course (1, 2, 3, 4, 6, 24 hr timepoints), with paw thickness measurements occurring immediately after the von Frey assay at each time point. Mechanical allodynia assessments and paw thickness measurements were conducted by observers blinded to treatment conditions. Intraplantar administration of carrageenan and digital caliper measurement of paw edema were conducted with mice restrained utilizing a plexiglass mouse restrainer (Stoelting Co., Wood Dale, IL)
as §3

In data set [4] the test system is C57BL/6 mice. Description: Carrageenan-induced paw edema (paw thickness, digital caliper). It counts as in vivo, mouse. Particulars: i.t., 1 hour time point, change in paw thickness, n = 8. Here is the method:
as §1
Paclitaxel was purchased from Bio-Techne (Minneapolis, MN) and was administered in a vehicle solution containing a 1:1:18 ratio of ethanol (100%), polyethylene glycol monooleyl ether (Tokyo Chemical Industry America; Portland, OR), and saline (0.9% w/v NaCl) as previously described. […]
After use in the hot plate latency assay, the same cohort was then used for the carrageen model of inflammatory pain. […] Mice were habituated to the von Frey apparatus and were assessed using the same “up-down” method as described earlier. […] The change in paw thickness from baseline was assessed with digital caliper measurements. Paw thickness and von Frey responses were measured over a 24-hour time course (1, 2, 3, 4, 6, 24 hr timepoints), with paw thickness measurements occurring immediately after the von Frey assay at each time point. […]
Background: The carrageenan paw model is a standard test of acute inflammation.

The conditions of data set [5]: cited from earlier work. The source says: (§5) So far, behavioral studies have mostly been conducted in rats and relied on exogenous administration of endogenous ligands. NPB is a 29 amino acid peptide with a bromine at the C-6 position of the indole moiety in the N-terminal tryptophan (Trp). […] NPW exists in two functional peptide forms consisting of 23 and 30 amino acid residues.

The next data set deals with NPBWR1. To be noted: NPB-23 ref 24, 25; RTIBW-16 ref 27; cited from earlier work.
From the text: as §5

With “[desaminoTrp^1]-Tyr-Lys-Ava-Ava-Ava-Gly-Arg-Ala-Ala-Gly-Leu-Leu-NH2 [RTIBW-16]”, in the data set with C57BL/6 mice [1], the “Duration of significant antinociception after administration” value turned out to be 2 h, the “Onset of significant antinociceptive effect” value is 0.5 h, the “Time of peak antinociceptive effect” value turned out to be 1.5 h and the “ED50 Hot Plate Latency” value is reported as 42.86 (25.09–73.21) μg. The “Duration of reversal of mechanical allodynia following treatment” value with C57BL/6 mice [2] (von Frey) is reported as “up to 3 hours”. In addition, in the data set with C57BL/6 mice [3], the “Attenuation of carrageenan-induced mechanical allodynia” value is “fully attenuated peak carrageenan-induced mechanical allodynia”, the “ED50 Carrageenan von Frey” value was 29.47 (21.71–40.00) μg and the “Time of delayed-onset partial mechanical allodynia attenuation after administration” value turned out to be 3 h. Besides, in the data set on C57BL/6 mice [4], the “Effect on carrageenan-induced paw edema (initial swelling) compared to vehicle” value was “significantly reduced the magnitude of initial swelling”. The “Metabolic stability in rat plasma” value in data set [5] was “improved metabolic stability in rat plasma”.

On to “Trp-Tyr-Lys-Pro-Ala-Ala-Gly-His-Ser-Ser-Tyr-Ser-Val-Gly-Arg-Ala-Ala-Gly-Leu-Leu-Ser-Gly-Leu-NH2 [NPB-23, truncated human NPB without a bromine at the N-terminal Trp residue; NPBWR1 agonist]”, for which, in the data set on C57BL/6 mice [1], the “Duration of significant antinociception after administration” value was “up to 6 hours”, the “Onset of significant antinociceptive effect” value was found to be 0.5 h, the “Time of peak antinociceptive effect” value came out at 1.5 h and the “ED50 Hot Plate Latency” value was 18.36 (10.17–33.15) μg. The “Duration of reversal of mechanical allodynia following treatment” value in the data set on C57BL/6 mice [2] (von Frey) is “up to 2 hours”. The “ED50 Paclitaxel CIPN von Frey” value in the data set with C57BL/6 mice [2] (i.t. injection, 1 hour following treatment, reversal of paclitaxel-induced mechanical allodynia, n = 8, 95% confidence intervals in parentheses) is listed as 45.06 (33.91–59.88) μg. In the data set on C57BL/6 mice [2] (i.t., von Frey, 1 hour), the “Reversal of CIPN mechanical allodynia at 1 hour timepoint” value is listed as “reverse the CIPN mechanical allodynia back to the baseline”. In the data set on C57BL/6 mice [3], the “Attenuation of carrageenan-induced mechanical allodynia” value was “robust mechanical allodynia blockade”, the “ED50 Carrageenan von Frey” value was 19.92 (13.52–29.35) μg and the “Time of delayed-onset partial mechanical allodynia attenuation after administration” value was determined as 2 h. Moreover, the “Effect on carrageenan-induced paw edema (initial swelling) compared to vehicle” value in the data set on C57BL/6 mice [4] is listed as “significantly reduced the magnitude of initial swelling”. Besides, the “In vitro NPBWR1 agonist activity compared with NPB” value in the data set on NPBWR1 is listed as “equipotent”.
